This experiment has as its target T1, Gag-Pol polyprotein [588-1027]/[588-1147] (Human immunodeficiency virus 1, UniProt P04585).
T1 construct: 588-1027; 588-1147
Nature of the experiment: HIV-1 RT Assay. The settings on record: pH 8.2; 37 °C. The text has this:
The IC50 of reverse transcriptase is the concentration that inhibits 50% of recombinant HIV-1 RT RNA-directed DNA polymerase activity in vitro.

The structures appear in SMILES notation.

By IC50 is commonly meant the concentration at which inhibition is half-maximal. Low values mean higher potency, high ones lower potency.

On to `CC[C@@H]1O[C@](/C=C/C2CC2)(C(F)(F)F)c2cc(F)ccc2NC1=O` [(3S,5S)-5-[(E)-2-cyclopropylethenyl]-3-ethyl-7-fluoro-5-(trifluoromethyl)-1,2,3,5-tetrahydro-4,1-benzoxazepin-2-one], for which inhibition was half-maximal at 151 nM (IC50).

`C[C@@H]1O[C@](/C=C/C2CC2)(C(F)(F)F)c2c(ccc(F)c2F)NC1=O` [(3S,5S)-5-[(E)-2-cyclopropylethenyl]-6,7-difluoro-3-methyl-5-(trifluoromethyl)-1,2,3,5-tetrahydro-4,1-benzoxazepin-2-one] gave an IC50 of 173 nM.

Consider `C[C@@H]1O[C@](/C=C/C2CC2)(C(F)(F)F)c2cc(F)ccc2NC1=O` [(3S,5S)-5-[(E)-2-cyclopropylethenyl]-7-fluoro-3-methyl-5-(trifluoromethyl)-1,2,3,5-tetrahydro-4,1-benzoxazepin-2-one], for which half-maximal inhibition (IC50) required 129 nM.

`CC[C@@H]1O[C@](/C=C/C2CC2)(C(F)(F)F)c2cc(Cl)ccc2NC1=O` [(3S,5S)-7-chloro-5-[(E)-2-cyclopropylethenyl]-3-ethyl-5-(trifluoromethyl)-1,2,3,5-tetrahydro-4,1-benzoxazepin-2-one] registered an IC50 of 185 nM.

For the compound `C[C@@H]1O[C@](/C=C/C2CC2)(C(F)(F)F)c2cc(Cl)ccc2NC1=O` [(3S,5S)-7-chloro-5-[(E)-2-cyclopropylethenyl]-3-methyl-5-(trifluoromethyl)-1,2,3,5-tetrahydro-4,1-benzoxazepin-2-one], the IC50 worked out at 46 nM.

The record behind these values is BindingDB's records for doi:10.1016/s0960-894x(01)00239-6 (Dupont Pharmaceuticals, 2001).
